{"source": "patent US20170166879A1", "about": "“NOVEL (R)-HYDROXYNITRILE LYASE” (PUBLIC UNIVERSITY CORPORATION TOYAMA PREFECTURAL UNIVERSITY, priority 2014, published 2017)", "origin": "cited, not measured here", "tested_on": "S-HNL derived from Baliospermum", "conditions": "cited from earlier work", "data": [{"smiles": "N.N#CS", "note": "[ammonium thiocyanate]", "values": [{"measurement": "inhibition of S-HNL", "value": "strongly inhibits"}]}]}
